Source: publication PMC4457528, “Identification of Novel Small Molecule Inhibitors of Oncogenic RET Kinase” (PLoS ONE, 2015)
Like-named read-outs stand apart in the source and are kept apart here.

Key:
Assay in all cases: KinomeScan kinase panel, single concentration 10 µM
Assay type in all cases: binding
KinomeScan kinase panel [1] = molecular target: T1, KinomeScan kinase panel (Homo sapiens, UniProt Q16513); details: PKN2, 10 µM; read-out: score (%)
T1 construct: purchased DiscoveRx (KinomeScan)
T1 sequence (Q16513 whole entry): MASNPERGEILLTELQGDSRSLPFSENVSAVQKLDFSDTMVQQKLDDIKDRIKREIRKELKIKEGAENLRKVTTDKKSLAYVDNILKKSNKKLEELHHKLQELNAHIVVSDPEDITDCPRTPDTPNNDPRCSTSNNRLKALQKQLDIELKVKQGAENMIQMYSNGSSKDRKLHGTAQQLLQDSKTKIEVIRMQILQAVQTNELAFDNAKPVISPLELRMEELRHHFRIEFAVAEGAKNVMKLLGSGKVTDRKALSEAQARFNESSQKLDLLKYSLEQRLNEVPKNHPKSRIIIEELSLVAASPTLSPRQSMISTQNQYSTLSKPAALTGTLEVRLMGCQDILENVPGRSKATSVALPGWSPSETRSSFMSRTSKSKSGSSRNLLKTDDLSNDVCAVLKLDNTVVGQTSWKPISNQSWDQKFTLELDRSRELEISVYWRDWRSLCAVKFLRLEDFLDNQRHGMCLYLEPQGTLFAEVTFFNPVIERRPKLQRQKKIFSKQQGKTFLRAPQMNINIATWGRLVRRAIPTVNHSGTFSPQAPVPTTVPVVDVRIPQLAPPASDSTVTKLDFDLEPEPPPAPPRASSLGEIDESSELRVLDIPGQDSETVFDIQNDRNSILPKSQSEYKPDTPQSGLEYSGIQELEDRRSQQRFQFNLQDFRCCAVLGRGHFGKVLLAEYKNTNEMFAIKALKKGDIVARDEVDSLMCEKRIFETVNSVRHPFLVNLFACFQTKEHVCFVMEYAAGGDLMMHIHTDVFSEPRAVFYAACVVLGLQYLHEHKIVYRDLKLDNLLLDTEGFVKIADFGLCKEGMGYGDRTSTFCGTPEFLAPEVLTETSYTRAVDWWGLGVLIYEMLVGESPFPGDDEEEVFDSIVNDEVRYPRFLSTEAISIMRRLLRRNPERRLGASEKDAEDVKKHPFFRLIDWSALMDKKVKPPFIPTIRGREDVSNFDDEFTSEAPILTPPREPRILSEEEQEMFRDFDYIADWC

KinomeScan kinase panel [2] = molecular target: T2, KinomeScan kinase panel (Homo sapiens, UniProt Q00536); details: PCTK1, 10 µM; read-out: score (%)
T2 construct: purchased DiscoveRx (KinomeScan)
T2 sequence (Q00536 whole entry): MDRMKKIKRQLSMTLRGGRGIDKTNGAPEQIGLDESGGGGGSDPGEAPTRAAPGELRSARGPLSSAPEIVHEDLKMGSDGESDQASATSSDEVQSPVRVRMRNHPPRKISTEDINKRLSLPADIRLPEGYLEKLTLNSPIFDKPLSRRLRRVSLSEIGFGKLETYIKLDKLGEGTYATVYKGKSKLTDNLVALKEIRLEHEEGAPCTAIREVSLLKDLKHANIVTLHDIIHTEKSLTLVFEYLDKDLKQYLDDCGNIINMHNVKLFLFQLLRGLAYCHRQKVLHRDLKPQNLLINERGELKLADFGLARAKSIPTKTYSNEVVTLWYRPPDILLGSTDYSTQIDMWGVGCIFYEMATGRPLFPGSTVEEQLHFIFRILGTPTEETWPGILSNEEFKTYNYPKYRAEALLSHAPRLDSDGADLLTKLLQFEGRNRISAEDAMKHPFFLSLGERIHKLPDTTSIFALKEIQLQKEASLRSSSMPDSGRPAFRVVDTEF

KinomeScan kinase panel [3] = molecular target: T3, KinomeScan kinase panel (Homo sapiens, UniProt P36897); details: read-out: score (%)
T3 construct: purchased DiscoveRx (KinomeScan)
T3 sequence (P36897 34-503): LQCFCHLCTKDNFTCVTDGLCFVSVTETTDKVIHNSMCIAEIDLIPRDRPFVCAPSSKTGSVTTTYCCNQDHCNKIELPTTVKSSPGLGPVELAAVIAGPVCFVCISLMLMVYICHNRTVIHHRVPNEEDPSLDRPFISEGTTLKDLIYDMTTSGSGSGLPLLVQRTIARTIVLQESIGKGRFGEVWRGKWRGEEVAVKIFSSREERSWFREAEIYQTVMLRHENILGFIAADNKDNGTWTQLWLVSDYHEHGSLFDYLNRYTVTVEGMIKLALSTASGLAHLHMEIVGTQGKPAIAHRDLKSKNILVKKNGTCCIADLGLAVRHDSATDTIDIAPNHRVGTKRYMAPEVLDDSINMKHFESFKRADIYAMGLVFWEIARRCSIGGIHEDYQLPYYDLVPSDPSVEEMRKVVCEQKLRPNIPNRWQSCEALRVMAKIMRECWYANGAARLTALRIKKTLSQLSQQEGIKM

KinomeScan kinase panel [4] = molecular target: T4, KinomeScan kinase panel (Homo sapiens, UniProt P54756); details: EPHA5, 10 µM
T4 construct: purchased DiscoveRx (KinomeScan)
T4 sequence (P54756 25-1037): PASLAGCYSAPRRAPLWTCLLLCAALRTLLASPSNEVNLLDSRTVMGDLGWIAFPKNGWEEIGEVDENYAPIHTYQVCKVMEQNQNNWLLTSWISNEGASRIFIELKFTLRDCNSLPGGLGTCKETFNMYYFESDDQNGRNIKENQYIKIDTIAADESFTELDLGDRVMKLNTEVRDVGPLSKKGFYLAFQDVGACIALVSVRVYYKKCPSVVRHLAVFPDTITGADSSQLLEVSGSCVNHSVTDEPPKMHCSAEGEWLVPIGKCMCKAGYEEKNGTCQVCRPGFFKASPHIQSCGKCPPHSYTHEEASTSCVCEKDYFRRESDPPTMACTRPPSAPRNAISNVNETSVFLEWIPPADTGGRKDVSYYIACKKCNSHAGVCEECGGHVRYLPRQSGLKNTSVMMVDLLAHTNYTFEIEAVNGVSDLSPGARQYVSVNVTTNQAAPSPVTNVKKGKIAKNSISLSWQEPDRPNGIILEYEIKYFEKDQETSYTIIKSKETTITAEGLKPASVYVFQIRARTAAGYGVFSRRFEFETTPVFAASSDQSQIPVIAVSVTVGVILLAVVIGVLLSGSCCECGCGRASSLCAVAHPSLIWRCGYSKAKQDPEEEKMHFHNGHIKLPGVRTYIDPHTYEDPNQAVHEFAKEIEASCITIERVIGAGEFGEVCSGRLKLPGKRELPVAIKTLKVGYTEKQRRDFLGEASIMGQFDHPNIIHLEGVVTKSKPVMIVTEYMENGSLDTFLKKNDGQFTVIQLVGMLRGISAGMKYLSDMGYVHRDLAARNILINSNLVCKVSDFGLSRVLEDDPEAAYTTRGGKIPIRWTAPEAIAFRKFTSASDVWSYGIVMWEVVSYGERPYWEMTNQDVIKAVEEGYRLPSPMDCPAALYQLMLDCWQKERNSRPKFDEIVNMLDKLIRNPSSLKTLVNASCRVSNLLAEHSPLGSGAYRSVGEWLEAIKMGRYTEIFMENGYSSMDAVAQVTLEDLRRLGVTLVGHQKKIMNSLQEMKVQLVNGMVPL

KinomeScan kinase panel [5] = molecular target: T5, KinomeScan kinase panel (Homo sapiens, UniProt P10721, V559D/V654A); details: KIT(V559D.V654A), 10 µM; read-out: score (%)
T5 construct: purchased DiscoveRx (KinomeScan)
T5 sequence (P10721 26-976 V559D/V654A): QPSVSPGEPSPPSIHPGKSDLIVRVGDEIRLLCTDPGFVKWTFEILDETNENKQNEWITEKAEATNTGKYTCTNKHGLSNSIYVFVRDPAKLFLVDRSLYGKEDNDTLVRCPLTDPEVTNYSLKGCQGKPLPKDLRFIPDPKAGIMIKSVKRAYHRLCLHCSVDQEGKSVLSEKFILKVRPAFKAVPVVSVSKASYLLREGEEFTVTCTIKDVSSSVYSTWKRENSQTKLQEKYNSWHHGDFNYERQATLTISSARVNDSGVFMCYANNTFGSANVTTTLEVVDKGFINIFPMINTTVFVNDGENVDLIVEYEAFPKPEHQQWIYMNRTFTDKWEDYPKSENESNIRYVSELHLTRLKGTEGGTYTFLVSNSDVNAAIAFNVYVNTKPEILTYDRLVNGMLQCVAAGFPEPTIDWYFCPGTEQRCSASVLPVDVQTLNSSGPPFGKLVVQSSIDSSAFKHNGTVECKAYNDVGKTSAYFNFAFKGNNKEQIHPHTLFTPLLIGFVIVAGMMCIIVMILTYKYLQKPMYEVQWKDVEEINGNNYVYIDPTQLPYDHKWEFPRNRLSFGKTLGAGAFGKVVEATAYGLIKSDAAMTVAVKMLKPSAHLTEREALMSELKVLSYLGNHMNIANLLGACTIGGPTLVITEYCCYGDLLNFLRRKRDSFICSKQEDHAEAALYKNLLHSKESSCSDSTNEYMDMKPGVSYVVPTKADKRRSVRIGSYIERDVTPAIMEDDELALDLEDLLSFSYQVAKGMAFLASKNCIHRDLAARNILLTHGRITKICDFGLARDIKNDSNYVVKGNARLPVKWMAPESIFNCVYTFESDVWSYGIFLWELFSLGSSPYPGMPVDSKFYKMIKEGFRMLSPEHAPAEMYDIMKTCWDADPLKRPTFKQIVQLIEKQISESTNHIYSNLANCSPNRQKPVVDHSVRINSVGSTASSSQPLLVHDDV

KinomeScan kinase panel [6] = molecular target: T6, KinomeScan kinase panel (Homo sapiens, UniProt Q8IYT8); details: kinase ULK2; 10 µM; read-out: score (%)
T6 construct: purchased DiscoveRx (KinomeScan)
T6 sequence (Q8IYT8 1-1036): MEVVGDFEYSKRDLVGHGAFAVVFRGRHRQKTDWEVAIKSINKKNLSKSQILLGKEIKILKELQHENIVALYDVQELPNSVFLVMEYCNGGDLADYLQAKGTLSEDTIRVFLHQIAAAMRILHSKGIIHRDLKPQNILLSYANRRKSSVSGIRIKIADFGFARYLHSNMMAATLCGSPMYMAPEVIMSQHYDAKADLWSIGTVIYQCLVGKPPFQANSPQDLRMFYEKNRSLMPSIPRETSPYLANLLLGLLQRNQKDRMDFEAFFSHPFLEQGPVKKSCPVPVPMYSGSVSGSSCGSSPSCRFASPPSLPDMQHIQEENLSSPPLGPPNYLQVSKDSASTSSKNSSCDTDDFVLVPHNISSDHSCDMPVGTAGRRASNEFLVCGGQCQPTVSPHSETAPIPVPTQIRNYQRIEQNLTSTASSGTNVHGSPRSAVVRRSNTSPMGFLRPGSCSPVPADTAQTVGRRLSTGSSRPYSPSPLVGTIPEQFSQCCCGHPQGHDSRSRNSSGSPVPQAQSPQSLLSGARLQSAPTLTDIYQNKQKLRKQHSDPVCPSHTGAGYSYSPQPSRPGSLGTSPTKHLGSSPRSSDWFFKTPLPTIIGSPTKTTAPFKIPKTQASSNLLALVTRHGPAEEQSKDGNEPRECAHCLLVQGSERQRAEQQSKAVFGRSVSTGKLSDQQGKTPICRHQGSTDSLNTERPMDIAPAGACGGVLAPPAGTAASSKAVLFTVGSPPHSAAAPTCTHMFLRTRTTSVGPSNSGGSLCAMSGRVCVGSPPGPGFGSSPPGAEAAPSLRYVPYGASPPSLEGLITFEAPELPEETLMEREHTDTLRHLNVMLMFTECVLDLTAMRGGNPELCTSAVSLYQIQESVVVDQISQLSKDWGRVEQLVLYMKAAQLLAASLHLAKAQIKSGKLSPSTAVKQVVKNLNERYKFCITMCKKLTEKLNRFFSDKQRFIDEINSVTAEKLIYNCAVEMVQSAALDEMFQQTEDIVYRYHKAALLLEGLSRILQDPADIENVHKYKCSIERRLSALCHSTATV

KinomeScan kinase panel [7] = molecular target: T7, KinomeScan kinase panel (Homo sapiens, UniProt Q15375); details: EPHA7, 10 µM; read-out: score (%)
T7 construct: purchased DiscoveRx (KinomeScan)
T7 sequence (Q15375 28-998): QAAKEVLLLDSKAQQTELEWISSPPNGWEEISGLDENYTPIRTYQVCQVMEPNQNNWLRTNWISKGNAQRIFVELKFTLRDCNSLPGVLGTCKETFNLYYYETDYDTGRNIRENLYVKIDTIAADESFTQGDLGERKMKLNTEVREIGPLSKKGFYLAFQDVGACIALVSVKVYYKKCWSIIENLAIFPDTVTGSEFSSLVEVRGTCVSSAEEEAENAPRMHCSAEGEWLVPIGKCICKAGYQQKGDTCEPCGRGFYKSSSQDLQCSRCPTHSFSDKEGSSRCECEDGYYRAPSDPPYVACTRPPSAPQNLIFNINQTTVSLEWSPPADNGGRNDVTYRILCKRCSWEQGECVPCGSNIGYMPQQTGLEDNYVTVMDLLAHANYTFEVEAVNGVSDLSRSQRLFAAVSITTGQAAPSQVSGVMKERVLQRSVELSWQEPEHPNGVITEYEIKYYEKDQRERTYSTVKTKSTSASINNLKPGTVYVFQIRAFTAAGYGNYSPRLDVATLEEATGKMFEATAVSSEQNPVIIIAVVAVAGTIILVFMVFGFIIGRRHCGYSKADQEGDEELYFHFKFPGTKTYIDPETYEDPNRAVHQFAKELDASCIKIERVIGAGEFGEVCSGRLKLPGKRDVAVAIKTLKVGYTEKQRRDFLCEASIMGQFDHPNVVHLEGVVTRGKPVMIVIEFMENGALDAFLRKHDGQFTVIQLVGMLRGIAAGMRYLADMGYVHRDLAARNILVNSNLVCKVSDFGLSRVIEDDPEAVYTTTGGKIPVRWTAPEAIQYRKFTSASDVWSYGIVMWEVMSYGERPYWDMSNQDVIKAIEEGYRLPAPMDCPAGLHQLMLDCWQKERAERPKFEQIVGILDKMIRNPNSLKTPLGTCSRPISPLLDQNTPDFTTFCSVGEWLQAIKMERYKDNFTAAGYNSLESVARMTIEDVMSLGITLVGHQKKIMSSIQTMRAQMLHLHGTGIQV

Row | SMILES | remaining binding at 10 µM (KinomeScan kinase panel [1]) | remaining binding at 10 µM (KinomeScan kinase panel [2]) | remaining binding at 10 µM (KinomeScan kinase panel [3]; kinase TGFBR1, 10 µM) | score (%) (KinomeScan kinase panel [4]) | remaining binding at 10 µM (KinomeScan kinase panel [5]) | remaining binding at 10 µM (KinomeScan kinase panel [6]) | remaining binding at 10 µM (KinomeScan kinase panel [7]) | remaining binding at 10 µM (KinomeScan kinase panel [3]; TGFBR1, 10 µM)
1 | CCN1CCN(Cc2ccc(NC(=O)c3ccc(C)c(NC(=O)c4cncc(-c5cccs5)c4)c3)cc2C(F)(F)F)CC1 [ALW-II-41-27] | > 30% | > 30% | > 30% | 0.25% | 5.4% | > 30% | > 30% | 
2 | CCN1CCN(Cc2ccc(NC(=O)c3ccc(C)c(C#Cc4cccnc4)c3)cc2C(F)(F)F)CC1 [XMD15-44] | 36% | 8.4% | 100% | 1.2% | 4.2% | 50% | 0.55% | 
3 | CCN1CCN(Cc2ccc(NC(=O)c3ccc(C)c(/C=C/c4cnc5[nH]ccc5c4Cl)c3)cc2C(F)(F)F)CC1 [HG-6-63-01, (E)-3-(2-(4-chloro-1H-pyrrolo[2,3-b]pyridin-5-yl)vinyl)-N-(4-((4-ethylpiperazin-1-yl)methyl)-3-(trifluoromethyl)phenyl)-4-methylbenzamide] | 23% | > 30% |  | 3.3% | 0.9% | 27% | > 30% | > 30%
